This assay deals with Dihydroorotate dehydrogenase (quinone), mitochondrial (Homo sapiens, UniProt Q02127). As to the kind of experiment: Method for Testing Activities of Compounds at Enzyme Level: Principles of activity test at enzyme level: firstly, dihydroorotate (DHO) is oxidatively dehydrogenated by DHODH to form orotic acid (Orotate, OA), accompanied by reduction of Flavin mononucleotide (FMN) into reduced flavin mononucleotide (FMNH2) by accepting 2H+ and 2e−, then coenzyme Q (CoQ) as hydrogen acceptor accepting electron and proton from FMNH2 is reduced into reduced coenzyme Q (CoQH2), reduced coenzyme Q transfers electrons to a chromogenic substrate, […] (DCIP), and finally DCIP was reduced. […] The degree to which the substrate DHO is oxidized can be judged based on the degree of decrease in absorbance. The degree of oxidation of the substrate DHO per unit time is the initial rate of the enzymatic reaction. […] Substrate DHO was added to start the reaction with a DHO final concentration of 500 μM. The absorbance was read at 600 nm using a BioTek microplate reader and read every 30 s for 6 min. […] For calculating IC50 of a compound, Origin 8.0 was used to test the inhibition rate at least 8 concentrations. Format: single protein.
Dihydroorotate dehydrogenase (quinone), mitochondrial, sequence (Q02127 whole entry): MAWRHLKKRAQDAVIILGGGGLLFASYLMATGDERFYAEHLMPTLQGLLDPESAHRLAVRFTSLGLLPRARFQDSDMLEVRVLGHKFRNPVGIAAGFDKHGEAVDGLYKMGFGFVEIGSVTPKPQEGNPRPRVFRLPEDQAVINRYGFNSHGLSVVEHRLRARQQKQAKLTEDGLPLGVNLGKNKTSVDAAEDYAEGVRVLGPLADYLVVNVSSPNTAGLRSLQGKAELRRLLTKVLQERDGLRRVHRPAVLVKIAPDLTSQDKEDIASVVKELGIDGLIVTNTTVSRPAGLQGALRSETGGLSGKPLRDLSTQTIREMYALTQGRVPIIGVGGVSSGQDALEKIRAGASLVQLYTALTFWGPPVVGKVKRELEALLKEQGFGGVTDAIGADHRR
As a reminder, the IC50 is the midpoint of a concentration-inhibition curve. `CN(/N=C/c1ccccc1C(=O)OCCc1ccccc1)c1nc(-c2ccccc2Cl)cs1`: the IC50 was greater than 50 µM.

On to `O=C(OCCc1ccccc1)c1ccccc1/C=N/Nc1nc(-c2ccccc2Cl)cs1`, for which the IC50 is greater than 50 µM. With `Cc1sc(N(C)/N=C/c2ccccc2C(=O)O)nc1-c1ccccc1Cl`, the IC50 was 0.0355 µM.

Values taken from ChEMBL document CHEMBL5728275 (2021).
